From patent publication EP1459757A1, “Immunomodulating polymers” (THE BRIGHAM AND WOMEN'S HOSPITAL, INC., priority 1999, dated 2004)

Assays:
[1] = test system: human T cells; assay: T cell proliferation assay (3H-thymidine uptake); type: cell-based; details: 20 µg/ml; 6 days post-incubation (Figure 6)
Procedure: T cell proliferation assays were performed on cells obtained from human leukopacs (discarded white cells from anonymous platelet donors). Mononuclear cells were separated by ficoll-hypaque sedimentation to eliminate red cells and polymorphonuclear leukocytes. The mononuclear layer, which consisted of T cells, B cells, and mononuclear cells, was depleted of B cells and monocytes by passage over nylon wool column. A portion of these cells was saved prior to placement on nylon wool and were used as autologous feeder cells following irradiation with 6.4 kRads with a cesium source for 4.8 min. Nylon passed cells, which were greater than 98% CD3 positive (as determined by FACS analysis) were used as responder cells or further depleted with antibodies to CD4 (OKT4) or CD8 (OKT8) followed by negative selection with magnetic beads. Finberg, RW et al. J Immunol 149:2055 (1992); Haregewoin, A et al. Nature 340:309 (1989). […] Cells were washed extensively, harvested, and the amount of radioactive uptake counted by liquid scintillation. […] Data were expressed as the average of triplicate wells ± the standard error of cpm represented. […]
Following the T cell proliferation assay of Example 2, K-D peptides (20 µg/ml) of varying size were assessed for their ability to stimulate T cell activation 6 days post-incubation. […]

[2] = test system: B. fragilis NCTC 9343; assay: Rat model of intraabdominal sepsis, abscess formation after B. fragilis challenge; type: in vivo
Procedure: The rat model of intraabdominal sepsis used in this study has been described previously. […] Briefly, male Wistar or Lewis rats (Charles River Laboratories, Wilmington, MA) weighing between 180 and 200 g were housed separately and received chow (Ralston Purina, St. Louis, MO) and water ad libitum. Animals were anesthetized with a single intraperitoneal injection of 0.15 ml of Nembutal (50 mg/ml; Abbott Laboratories, North Chicago, IL), and their abdomens were shaved and swabbed with a tincture of iodine. An anterior midline incision (0.5-1.0 cm) was made through the abdominal wall and peritoneum, and a gelatin capsule containing 0.5 ml of inoculum was inserted into the pelvis. The inoculum contained either B. fragilis NCTC 9343 (10^8 cfu/animal), S. aureus PS 80 (10^7 cfu/animal), or purified test polysaccharide, mixed 1:1 with an adjuvant solution containing sterile rat cecal contents and 10% barium sulfate (w/v) as previously described. […] The incisions were closed with interrupted 3.0 silk sutures, and the animals were returned to the cages.
Six days later animals were necropsied in a blinded fashion and examined for the formation of one or more intraabdominal abscesses by an observer blinded to the experimental groups.
This example addresses whether zwitterionic (K-D)n peptides could protect animals against abscess formation in vivo, using the abdominal sepsis model in Example 1.
The effect of the peptide repeating unit size on protection was examined. Animals were treated according to the regimen described above with a 50 µg/dose of each repeating unit size (Table 2).

[3] = Table 1 Experiment A, 50 µg subcutaneous at -24, 0, +24 h, B. fragilis 1 x 10^8 cfu/rat, six days later

With poly-L-lysine the “T cell activation by K-D peptides of varying size” value [1] was “did not stimulate T cell proliferation”, the “protection against abscess formation compared with saline-treated animals” value ([2]; 50 µg/dose subcutaneous, B. fragilis challenge) was “did not protect against abscess formation” and the “Abscess formation (%)” value [2, 3] was 80%. The “No. animals with abscess/total” value [2, 3] was 8/10.
